pIC50: −log10 of the molar value. Several values for one entry are separate records, joined by “and”; a condition that tells them apart may be missing. Identical values can stand only once.

For 86 compounds, IC50 results are on record in ChEMBL document CHEMBL5604062, “ASAP - ZIKV NS2B-NS3 protease fluorescence dose response” (2024).

Chain of Nonstructural protein 3 (A0A024AXB9 whole entry): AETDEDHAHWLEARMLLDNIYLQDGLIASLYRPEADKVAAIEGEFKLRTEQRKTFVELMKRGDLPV

This assay addresses Nonstructural protein 3 (Zika virus, UniProt A0A024AXB9). Nature of the assay: Functional biochemical assay to identify treatments for viral infectious disease that targets Zika NS2B-NS3 protease. Utilizing a direct enzyme activity measurement method, reading the fluorescence intensity is used to characterize the relative potency of inhibitors as IC50. More on the design: species or system PRVABC59.
A word on the pIC50: it is the IC50 on a negative log10 scale, so that one unit is a factor of ten. The low end stands for a large IC50, the high end for a small IC50. Consider `O=C(N[C@H](C(=O)NCc1cccc(CC(F)(F)F)c1)c1ccc(OCc2ccccc2)cc1)OCc1ccccc1`, for which the pIC50 was less than 4.00. Compound `CCn1c(=O)c(N2CCCC[C@H](N3CCCC3)C2)nc2ccccc21` gave a pIC50 of less than 4.00. `CCn1c(=O)c(N2C[C@@H](CO)[C@H](c3cncn3C)C2)nc2ccccc21` showed a negative-log IC50 (pIC50) of less than 4.00. Regarding `O=c1[nH]ncn1C1CCN(Cc2c[nH]c3ccccc23)CC1`, the pIC50 is 4.47. `CCn1c(=O)c(N2CC[C@H](N3CCCS3(=O)=O)C2)nc2ccccc21` gave a pIC50 of less than 4.00. `N#Cc1ccccc1-c1ccc([C@H](NC(=O)OCc2ccccc2)C(=O)Nc2cccc(CN)c2)cc1` showed a pIC50 of 4.92.

`COc1ncccc1-c1ccc([C@@H](NC(=O)OCc2ccccc2)C(=O)Nc2cccc(CN)c2)cc1`: the pIC50 was 4.75. Turning to `CCNC(=O)[C@@H](NC(=O)OCc1ccccc1)c1ccc(OCc2ccccc2)cc1`, the pIC50 was less than 4.00. In turn, `CCn1c(=O)c(N2C[C@H]3C[C@@H](O)CC[C@H]3C2)nc2ccccc21` gave a pIC50 of less than 4.00. Consider `CS(=O)(=O)NCc1ccc(CNC(=O)[C@@H](NC(=O)OCc2ccccc2)c2ccc(OCc3ccccc3)cc2)cc1`, for which the pIC50 was less than 4.00. Take `NCc1cccc(NC(=O)[C@@H](NC(=O)OCc2ccccc2)c2ccc(-c3ccc4scnc4c3)cc2)c1`: the negative-log IC50 (pIC50) was 4.91. Next, `Cn1cc(Nc2ccc(S(=O)(=O)Nc3ccc(Cl)cc3C(=O)O)cn2)cn1`: less than 4.00; `O=C(NS(=O)(=O)C1CC1)c1cc(Cl)ccc1NS(=O)(=O)c1ccc(Oc2ccccc2Cl)cc1`: 4.71. `CN1Cc2ccc(CNC(=O)[C@@H](NC(=O)OCc3ccccc3)c3ccc(OCc4ccccc4)cc3)cc2C1`: the pIC50 is 4.14.

With `CC[C@H]1CN2CCC[C@H]2CN1c1nc2ccccc2n(CC)c1=O`, the pIC50 was less than 4.00.

Compound `CCn1c(=O)c(N2C[C@@H]3CN(C4CCC4)C[C@@H]3C2)nc2ccccc21` gave a pIC50 of less than 4.00. For the compound `CCn1c(=O)c(N2CC3(CCC3)C[C@@H]2C)nc2ccccc21`, the pIC50 was less than 4.00. Next, `CC(C)c1cc(-c2ccc([C@@H](NC(=O)OCc3ccccc3)C(=O)Nc3cccc(CN)c3)cc2)on1`: 4.62; `NCc1cccc(NC(=O)[C@@H](NC(=O)OCc2ccccc2)c2ccc(-c3ccnc4[nH]ccc34)cc2)c1`: less than 4.00. `CCn1cc(-c2ccccc2N)nc(N2CC[C@@H](CO)C2)c1=O`: the pIC50 was less than 4.00.

`O=C(O)c1cc(Cl)ccc1CNS(=O)(=O)c1ccc(Oc2ccccc2Cl)cc1` showed a pIC50 of less than 4.00.

Turning to `CCn1c(=O)c(N2C[C@@H]3CS(=O)(=O)C[C@@H]3C2)nc2ccccc21`, the pIC50 is less than 4.00. The compound `COc1cncc(CNC(=O)[C@@H](NC(=O)OCc2ccccc2)c2ccc(OCc3ccccc3)cc2)c1` showed a pIC50 of less than 4.00.

`CCn1c(=O)c(N2CC[C@@H](CN3CCCCC3)C2)nc2ccccc21` had a pIC50 of less than 4.00. Next, `Cc1noc(C)c1-c1ccc([C@@H](NC(=O)OCc2ccccc2)C(=O)Nc2cccc(CN)c2)cc1`: 4.24. Next, `CN1CCc2ccc(C(=O)N3CCNc4ccccc4C3)cc2C1`: less than 4.00. `NS(=O)(=O)c1ccc(N2CCC=C(c3cccc(O)c3)C2)c2ncccc12` had a pIC50 of less than 4.00. Next, `O=C(O)c1cc(Cl)ccc1NS(=O)(=O)c1ccc(N[C@H]2CCCOC2)nc1`: less than 4.00; `CCn1c(=O)c(N2C[C@@H]3CCO[C@]3(COC)C2)nc2ccccc21`: less than 4.00. On to `CCn1c(=O)c(N2CCC[C@H]2c2noc(C)n2)nc2ccccc21`, for which the pIC50 was less than 4.00. As for `CN(C)Cc1cncc(NC(=O)[C@@H](NC(=O)OCc2ccccc2)c2ccc(OCc3ccccc3)cc2)c1`, the pIC50 was less than 4.00. As to `Cc1nc(-c2ccc([C@@H](NC(=O)OCc3ccccc3)C(=O)Nc3cccc(CN)c3)cc2)cs1`, the pIC50 is less than 4.00. `CCn1c(=O)c(N2CC[C@@]3(COC(=O)N3)C2)nc2ccccc21` showed a pIC50 of less than 4.00. Regarding `NCc1cccc(NC(=O)[C@@H](NC(=O)OCc2ccccc2)c2ccc(C3=CCCOC3)cc2)c1`, the pIC50 is 4.16. `CN1CC[C@H](C2CCN(S(=O)(=O)c3cc(F)cc(C(=O)O)c3)CC2)C1` gave a pIC50 of less than 4.00. As for `CN(C)CCOc1cccc(CNC(=O)[C@@H](NC(=O)OCc2ccccc2)c2ccc(OCc3ccccc3)cc2)c1`, the pIC50 is less than 4.00. Next, `CCn1cc(C(=O)O)nc(N2CC[C@@H](CO)C2)c1=O`: less than 4.00; `Cc1cnn(-c2cccc(-c3cccc(C4(CN)CC4)c3)c2)c1`: less than 4.00. With `O=C(N[C@@H](C(=O)NCc1cccnc1)c1ccc(OCc2ccccc2)cc1)OCc1ccccc1`, the pIC50 was less than 4.00.

Regarding `CCn1c(=O)c(N2CCC[C@H]2c2cncc(Br)c2)nc2ccccc21`, the pIC50 was less than 4.00. In turn, `O=C(N[C@@H](C(=O)NCc1c[nH]cn1)c1ccc(OCc2ccccc2)cc1)OCc1ccccc1` showed a pIC50 of less than 4.00.

`Cc1ccc(COc2ccc(S(=O)(=O)Nc3ccc(Cl)cc3C(=O)O)cc2)cc1` had a pIC50 of 4.76. Take `O=C(N[C@@H](C(=O)NC1CCCCC1)c1ccc(OCc2ccccc2)cc1)OCc1ccccc1`: the pIC50 was less than 4.00. In the case of `CCn1c(=O)c(N2CC[C@H](NC(=O)NC3CC3)C2)nc2ccccc21`, the pIC50 is less than 4.00.

With `NCc1cccc(NC(=O)[C@@H](NC(=O)OCc2ccccc2)c2ccc(-c3ccc4cn[nH]c4c3)cc2)c1`, the pIC50 was 5.22 and 5.24. Next, `CCn1c(=O)c(N2C[C@H]3COC(C)(C)OC[C@H]3C2)nc2ccccc21`: less than 4.00. For the compound `CN1CCc2ncc(NC(=O)[C@@H](NC(=O)OCc3ccccc3)c3ccc(OCc4ccccc4)cc3)cc2C1`, the pIC50 was less than 4.00.

With `CCn1c(=O)c(N2CC(S(=O)(=O)N3CCCC3)C2)nc2ccccc21`, the pIC50 is less than 4.00. As for `OCc1ccc(Cl)c(N2CCN(c3ccc4[nH]cnc4c3)CC2)n1`, the pIC50 was less than 4.00. With `CC(C)c1cnc(COc2ccc(S(=O)(=O)Nc3ccc(Cl)cc3C(=O)O)cc2)o1`, the pIC50 was less than 4.00. On to `CS(=O)(=O)NC(=O)c1cc(Cl)ccc1NS(=O)(=O)c1ccc(Oc2ccccc2Cl)cc1`, for which the pIC50 is 4.44. Next, `O=C(N[C@@H](C(=O)NCc1ccncc1)c1ccc(OCc2ccccc2)cc1)OCc1ccccc1`: less than 4.00; `CCn1c(=O)c(N2CC[C@@H](Cc3ccncc3)C2)nc2ccccc21`: less than 4.00; `CN(C)Cc1ccc(CNC(=O)[C@@H](NC(=O)OCc2ccccc2)c2ccc(OCc3ccccc3)cc2)cc1`: less than 4.00. As for `CCn1c(=O)c(N2CC[C@@]23CCN(C)C3)nc2ccccc21`, the negative-log IC50 (pIC50) was less than 4.00. Regarding `CCn1c(=O)c(N2CC3(CCCCC3)C[C@H]2CO)nc2ccccc21`, the pIC50 is less than 4.00. For `NCc1cccc(NC(=O)[C@@H](NC(=O)OCc2ccccc2)c2ccc(-c3ccc(N)nc3)cc2)c1`, the negative logarithm of the IC50 (pIC50) was 4.14. As for `CN(C)Cc1cc(CNC(=O)[C@@H](NC(=O)OCc2ccccc2)c2ccc(OCc3ccccc3)cc2)ccc1F`, the pIC50 was less than 4.00. Next, `CCn1c(=O)c(N2C[C@H]3CN(C)CC[C@H]3C2)nc2ccccc21`: less than 4.00; `COc1ccc(COc2ccc(S(=O)(=O)Nc3ccc(Cl)cc3C(=O)O)cc2)nc1`: less than 4.00. `CC(C)(C)c1ncc(-c2ccc([C@@H](NC(=O)OCc3ccccc3)C(=O)Nc3cccc(CN)c3)cc2)o1` showed a pIC50 of 4.44. Next, `CCn1c(=O)c(N2CC[C@]3(CCCN(C)C3)C2)nc2ccccc21`: less than 4.00; `O=C(O)c1ncc(F)cc1NS(=O)(=O)c1ccc(Oc2ccccc2Cl)cc1`: less than 4.00; `CCn1c(=O)c(N2C[C@H]3OCCN(C(C)=O)[C@H]3C2)nc2ccccc21`: less than 4.00. The compound `C[C@@H]1c2cccnc2CCN1Cc1cccc(CN(C)C)c1` had a pIC50 of less than 4.00. As to `NCc1cccc(NC(=O)[C@@H](NC(=O)OCc2ccccc2)c2cccc(OCc3cncnc3)c2)c1`, the pIC50 is less than 4.00. Next, `O=C(N[C@@H](C(=O)Nc1cccnc1)c1ccc(OCc2ccccc2)cc1)OCc1ccccc1`: less than 4.00; `CCn1cc(-c2ccc(S(C)(=O)=O)cc2)nc(N2CC[C@@H](CO)C2)c1=O`: less than 4.00. Next, `CCn1c(=O)c(N2CC[C@@]3(CCCN3C)C2)nc2ccccc21`: less than 4.00; `CNc1nc2cc(-c3ccc4c(c3)C[C@H](N)C4)ccc2o1`: less than 4.00; `CN(C)[C@H]1CCc2cc(-c3cccc(N4CCNC4=O)c3)ccc2NC1`: less than 4.00. Turning to `NCc1cccc(NC(=O)[C@@H](NC(=O)OCc2ccccc2)c2ccc(-c3ccncc3F)cc2)c1`, the pIC50 is 4.41. Next, `O=C(O)c1cc(Cl)c(F)cc1NS(=O)(=O)c1ccc(Oc2ccccc2)cc1`: 4.52. On to `COc1ccccc1-c1ccc([C@@H](NC(=O)OCc2ccccc2)C(=O)Nc2cccc(CN)c2)cc1`, for which the pIC50 is 4.57. `CCn1cc(-c2ccc(CN(C)C)cc2)nc(N2CC[C@@H](CO)C2)c1=O`: the pIC50 was less than 4.00. `CC(C)(CO)NC(=O)[C@@H](NC(=O)OCc1ccccc1)c1ccc(OCc2ccccc2)cc1` showed a pIC50 of less than 4.00. On to `Cc1n[nH]cc1-c1ccc([C@@H](NC(=O)OCc2ccccc2)C(=O)Nc2cccc(CN)c2)cc1`, for which the pIC50 is less than 4.00.

The compound `Cn1cc(-c2ccc([C@@H](NC(=O)OCc3ccccc3)C(=O)Nc3cccc(CN)c3)cc2)ccc1=O` had a pIC50 of less than 4.00.

On to `CCn1c(=O)c(N2C[C@H]3CCCN3C(=O)[C@H]2C)nc2ccccc21`, for which the pIC50 is less than 4.00. Next, `CCn1c(=O)c(N2CCC[C@H]2CN2CCCC2)nc2ccccc21`: less than 4.00; `CCn1cc(-c2cccc(-c3ccccc3)c2)nc(N2CC[C@@H](CO)C2)c1=O`: less than 4.00. The compound `O=C(N[C@@H](C(=O)NCc1ccccn1)c1ccc(OCc2ccccc2)cc1)OCc1ccccc1` showed a pIC50 of less than 4.00. The compound `CCn1cc(-c2cn(C)nc2C(F)(F)F)nc(N2CC[C@@H](CO)C2)c1=O` showed a negative logarithm of the IC50 (pIC50) of less than 4.00. Next, `CCn1c(=O)c(N2CC[C@H](N3CCN(C)CC3)C2)nc2ccccc21`: less than 4.00; `CCn1c(=O)c(N2CCC[C@H]2c2ncccn2)nc2ccccc21`: less than 4.00; `Cn1nc(C2CCN(C(=O)c3ccccc3CSc3nnc[nH]3)CC2)cc1O`: less than 4.00.
